Laboratory results as given in doi:10.1101/2023.08.21.552681v1 (biorxiv, 2023).

Each compound was assayed against T1, ctdWDR91 (Homo sapiens, UniProt A4D1P6) (assay: biochemical).
T1 sequence (A4D1P6 392-747): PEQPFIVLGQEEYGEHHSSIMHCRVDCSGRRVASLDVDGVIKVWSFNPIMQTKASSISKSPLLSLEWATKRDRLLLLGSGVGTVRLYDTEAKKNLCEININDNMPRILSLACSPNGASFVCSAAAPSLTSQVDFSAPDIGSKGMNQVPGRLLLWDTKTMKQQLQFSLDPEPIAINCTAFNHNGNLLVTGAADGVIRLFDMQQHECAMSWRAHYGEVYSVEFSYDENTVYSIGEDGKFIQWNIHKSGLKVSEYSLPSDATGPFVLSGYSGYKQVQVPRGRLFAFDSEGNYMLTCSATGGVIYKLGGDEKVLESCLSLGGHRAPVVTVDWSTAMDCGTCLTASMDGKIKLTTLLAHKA

SMILES | Kd
CC(NC(=O)c1ccc(N2CCC(O)C2)cc1)c1cccc(N2CCCC2)c1 (centres unmarked) [DRGG001998a] | > 45 µM
C[C@@H](NC(=O)c1ccc(N2CCC(O)C2)cc1)c1ccc2c(c1)CCCC2 (some centres unmarked) [DRGG001990a] | > 45 µM
O=C(NCC1CCN(c2ccc(F)cc2)C1)c1ccc(Cl)cc1 (centres unmarked) [DRGG001960a] | > 45 µM
C=CC(=O)Nc1ccc(CC(=O)NC2(c3ccccc3)COC2)cc1 [MRTR046653a] | > 45 µM
O=C(NCC1CCN(c2ccc(Cl)cc2)C1)c1ccc(OC2CCOC2)cc1 (centres unmarked) [DRGG001945a] | > 45 µM
Nc1ncnc2cc(C(=O)NC3(c4ccc(Cl)cc4)COC3)ccc12 [DRGG001943a] | 37 µM
O=C(CNC(=O)c1ccc(O)cc1)NCC1CCN(c2ccc(Cl)cc2)C1 (centres unmarked) [DRGG001951a] | > 45 µM
N#CC1(c2ccc(C(=O)NCC3CCN(c4ccc(Cl)cc4)C3)cc2)CC1 (centres unmarked) [DRGG001993a] | > 45 µM
O=C(NC1(c2ccc(Cl)cc2)COC1)c1ccc2c(c1)NC(=O)C1CCCN21 (centres unmarked) [DRGG002018a] | > 45 µM
O=C(NC(CCO)c1ccc(Cl)cc1)c1ccc(N2CCC(O)C2)cc1 (centres unmarked) [DRGG001961a] | 14 µM
O=C(NCC1CCN(c2ccc(Cl)cc2)C1)c1ccc(C2(O)COC2)cc1 (centres unmarked) [DRGG001959a] | > 45 µM
O=C(NCC1CCN(c2ccc(F)cc2)C1)NC1(c2ccc(Cl)cc2)CC1 (centres unmarked) [DRGG002015a] | > 45 µM
CC1CCN(c2ccc(C(=O)NC3(Cc4cccc(F)c4)CC3)cc2)C1 (centres unmarked) [DRGG002009a] | > 45 µM
O=C(NCC1CCN(c2ccc(Cl)cc2)C1)c1ccc(C2CCCOC2)cc1 (centres unmarked) [DRGG001987a] | > 45 µM
NC(=O)C1CCCN(c2ccc(C(=O)NC(c3ccc(Cl)cc3)C3CC3)cc2)C1 (centres unmarked) [DRGG001957a] | 16 µM
O=C(NC1(Cc2ccccc2)COC1)c1ccc(N2CCC(O)C2)cc1 (centres unmarked) [DRGG001952a] | > 45 µM
O=C1CCC(c2ccc(C(=O)NC3CCN(c4ccc(Cl)cc4)C3)cc2)N1 (centres unmarked) [DRGG001984a] | > 45 µM
O=C(NC1(c2ccc(Cl)cc2)CC1)c1ccc(N2CCC(O)C2)cc1 (centres unmarked) [DRGG001980a] | > 20 µM
O=C(NC1(c2ccc(Cl)cc2)COC1)C1CCN(c2ccccc2)C1 (centres unmarked) [DRGG001991a] | > 45 µM
O=C(NC1(c2ccc(Cl)cc2)COC1)c1cccc(N2CCCC2)c1 [DRGG001982a] | > 45 µM
O=C(NCC1CCN(c2ccc(Cl)cc2)C1)NC1(c2ccc(F)cc2)CC1 (centres unmarked) [DRGG002005a] | > 45 µM
O=C(NCCc1ccc(Cl)cc1)c1ccc(N2CCC(O)C2)cc1 (centres unmarked) [DRGG001935a] | > 45 µM
CC1(c2ccc(C(=O)NC3CCN(c4ccc(F)cc4)C3)cc2)CC1 (centres unmarked) [DRGG001994a] | > 45 µM

SMILES | Kd
O=C(NC1CC2(CCC2)Oc2ccccc21)c1ccc(N2CCC(O)C2)cc1 (centres unmarked) [DRGG001975a] | > 45 µM
O=C(NCC1CCN(c2ccc(Cl)cc2)C1)c1cccc(C2(O)COC2)c1 (centres unmarked) [DRGG001996a] | > 45 µM
O=C(Nc1cccc2cnccc12)c1ccc(N2CCC(O)C2)cc1 (centres unmarked) [DRGG001979a] | > 45 µM
O=C(NC1(c2ccc(Cl)cc2)COC1)c1ccc(OCC2CC2)cc1 [DRGG001971a] | > 45 µM
O=C(NC1CC1)c1ccc(C(=O)NC2CCN(c3ccc(Cl)cc3)C2)cc1 (centres unmarked) [DRGG002012a] | > 45 µM
Cc1ccc(N2CCC(NC(=O)c3ccc(Cl)cc3)C2)cc1 (centres unmarked) [DRGG001953a] | > 45 µM
O=C(NCc1ccc2nsnc2c1)c1ccc(N2CCC(O)C2)cc1 (centres unmarked) [DRGG002011a] | 12 µM
NC(=O)c1ccc(C2(C(=O)NCC3CCN(c4ccc(Cl)cc4)C3)CC2)cc1 (centres unmarked) [DRGG002017a] | > 45 µM
O=C(c1ccc(N2CCC(O)C2)cc1)N1Cc2ccc(Cl)cc2C1 (centres unmarked) [DRGG001955a] | > 45 µM
O=C(N[C@@H]1CC2(CCC2)Oc2ccc(F)cc21)c1ccc(N2CCC(O)C2)cc1 (some centres unmarked) [DRGG001964a] | > 45 µM
O=C(NCC1CCN(c2ccc(F)cc2)C1)NCC1(c2ccc(Cl)cc2)CC1 (centres unmarked) [DRGG002008a] | > 45 µM
O=C(NC1CCN(c2ccc(Cl)cc2)C1)c1ccc(CN2CCCC2=O)cc1 (centres unmarked) [DRGG001992a] | > 45 µM
CC1CCN(c2ccc(C(=O)NCC3(c4ccc(F)cc4)CC3)cc2)C1 (centres unmarked) [DRGG001965a] | > 45 µM
O=C(NC1(c2ccc(Cl)cc2)COC1)c1ccc(CC2CC2)cc1 [DRGG001970a] | > 45 µM
O=C(NOCc1ccc(Cl)cc1)c1ccc(N2CCC(O)C2)cc1 (centres unmarked) [DRGG002010a] | > 45 µM
O=C(NCC1CCN(c2ccc(Cl)cc2)C1)N1CC(O)(c2ccc(F)cc2)C1 (centres unmarked) [DRGG002007a] | > 45 µM
O=C(Nc1cccc2c1CN(C1CC1)C2)c1ccc(N2CCC(O)C2)cc1 (centres unmarked) [DRGG001985a] | > 45 µM
O=C(CNC(=O)c1ccc(F)cc1)NC1CCN(c2ccc(Cl)cc2)C1 (centres unmarked) [DRGG001962a] | > 45 µM
O=C(NCC1CCN(c2ccc(Cl)cc2)C1)c1ccc(C(=O)NC2CC2)cc1 (centres unmarked) [DRGG001936a] | > 45 µM
O=C(CNC(=O)c1ccc(N2CCC(O)C2)cc1)OCc1ccc(Cl)cc1 (centres unmarked) [DRGG002006a] | > 45 µM
CC1CCN(c2ccc(C(=O)NC3(c4ccc(F)cc4)CC3)cc2)C1 (centres unmarked) [DRGG002016a] | > 45 µM
O=C(NCC1CCN(c2ccc(Cl)cc2)C1)c1ccc(F)cc1 (centres unmarked) [DRGG001950a] | > 45 µM
O=C(NC1CCN(c2ccc(Cl)cc2)C1)c1ccc2c(c1)CC2 (centres unmarked) [DRGG001973a] | > 45 µM

SMILES | Kd
O=C(NC1CCN(c2ccc(Cl)cc2)C1)c1ccc(C2(O)COC2)cc1 (centres unmarked) [DRGG001966a] | > 45 µM
O=C(NCC1CCN(c2ccc(Cl)cc2)C1)c1ccc(CN2CCOCC2)cc1 (centres unmarked) [DRGG001983a] | > 45 µM
O=C1Cc2c(cccc2C(=O)NC2(c3ccc(Cl)cc3)COC2)N1 [DRGG001947a] | > 45 µM
O=C(N[C@@H]1CCN(C2CC2)[C@H]1c1ccccc1)c1ccc(N2CCC(O)C2)cc1 (some centres unmarked) [DRGG001958a] | > 45 µM
O=C(N[C@@H]1C[C@H]1c1ccc(Cl)cc1)c1ccc(N2CCC(O)C2)cc1 (some centres unmarked) [DRGG001986a] | > 45 µM
O=C(NCC1CCN(c2ccc(F)cc2)C1)c1ccc(N2CCC(O)C2)cc1 (centres unmarked) [DRGG001938a] | > 45 µM
CC1CCN(c2ccc(C(=O)NC3(Cc4ccc(F)cc4)CC3)cc2)C1 (centres unmarked) [DRGG002014a] | > 45 µM
O=C(NCC1CCN(Cc2ccccc2)C1)c1ccc(N2CCC(O)C2)cc1 (centres unmarked) [DRGG001968a] | > 45 µM
O=C(N[C@@H]1CCO[C@H]1c1ccc(Cl)cc1)c1ccc(N2CCC(O)C2)cc1 (some centres unmarked) [DRGG002001a] | > 45 µM
CC1CCN(c2ccc(C(=O)NC3(C)Cc4ccccc4C3)cc2)C1 (centres unmarked) [DRGG001937a] | > 45 µM
O=C(NCC1CCN(c2ccc(F)cc2)C1)N1CC(O)(c2ccc(Cl)cc2)C1 (centres unmarked) [DRGG002002a] | > 45 µM
O=C(NC1CCN(c2ccc(Cl)cc2)C1)c1ccc(N2CCC(O)C2)cc1 (centres unmarked) [DRGG001963a] | > 45 µM
O=C(NC1CCN(c2ccc(F)cc2)C1)c1ccc(Cl)cc1 (centres unmarked) [DRGG001976a] | > 45 µM
O=C(NC1CCc2cc(Cl)ccc21)c1ccc(N2CCC(O)C2)cc1 (centres unmarked) [DRGG001981a] | > 45 µM
O=C(NC1(c2ccc(Cl)cc2)COC1)c1cncc2cnccc12 [DRGG001948a] | > 45 µM
C=CC(=O)N1CCCc2c(C(=O)NC(c3ccc(F)cc3)C3CCCCC3)cccc21 (centres unmarked) [DRTR002366a] | > 45 µM
O=C(NCC1CCN(c2ccc(F)cc2)C1)C1(c2ccc(Cl)cc2)CCOCC1 (centres unmarked) [DRGG001995a] | > 45 µM
NC(=O)C1CCCN(c2ccc(C(=O)NC(CCO)c3ccc(Cl)cc3)cc2)C1 (centres unmarked) [DRGG001997a] | 22 µM
Cc1nc2sccn2c1C(=O)NC1(c2ccc(Cl)cc2)COC1 [DRGG001989a] | > 45 µM
O=C(NC1(c2ccc(Cl)cc2)COC1)c1ccc(N2CCCC2)cc1 [DRGG001988a] | > 45 µM
O=C(NCCOc1ccc(Cl)cc1)c1ccc(N2CCC(O)C2)cc1 (centres unmarked) [DRGG002013a] | > 45 µM
CC1(NC(=O)c2ccc(N3CCC(O)C3)cc2)CCN(C(=O)OC(C)(C)C)C1 (centres unmarked) [DRGG002003a] | > 45 µM

Target: T1, ctdWDR91
Assay: biochemical
Remark: another data set of the same source

SMILES | Kd
CS(=O)(=O)N1CCC(CN(Cc2cccc(F)c2)C2CC2)C1 (centres unmarked) [MRGG045308a] | > 45 µM
N#Cc1cccc(CN(C=O)C2CC3(CCCC3)Oc3ccccc32)c1 (centres unmarked) [MRGG045284a] | > 45 µM
CC(NC(=O)CN(C)Cc1ccc(Cl)c(Cl)c1)c1ccccc1 (centres unmarked) [MRGG044839a] | > 45 µM
CCC(NC(=O)CN1CCn2cncc2C1)c1ccc(Cl)cc1 (centres unmarked) [MRGG044822a] | > 45 µM
Cc1nn2cc(C(=O)N(C)CCc3cccc(C#N)c3)nc2s1 [MRGG045278a] | > 45 µM
N#Cc1cc(C#N)cc(CNc2cccc(CN3CCCC3=O)c2)c1 [MRGG045333a] | > 45 µM
Cc1cc(NCC2CCN(C3CC3)C2)nc(-c2cccc([N+](=O)[O-])c2)n1 (centres unmarked) [MRGG044829a] | > 45 µM
CC1CN(C2CC2)CC1NCc1ccccc1-n1ccnc1 (centres unmarked) [MRGG044802a] | > 45 µM
CC1CC(NCC2CCCCCC2)CN1C1CC1 (centres unmarked) [MRGG045339a] | > 45 µM
CN(CCc1ccccc1F)C(=O)c1cnc2sccn12 [MRGG045268a] | > 45 µM
CCOc1ccc2c(c1)C(NC(=O)c1cn3ccnc3s1)CCO2 (centres unmarked) [MRGG044834a] | > 45 µM
COc1cccc([C@@H]2[C@@H](NC3CCN(C4CC4)C3)CCN2C2CC2)c1 (some centres unmarked) [MRGG045319a] | > 45 µM
CC(NC(=O)c1cccc(N2CCCC2)c1)(C(=O)O)c1ccccc1 (centres unmarked) [MRGG044796a] | > 45 µM
CCCC(NC(=O)c1cc(O)c(O)cc1C)C(=O)N(C)C (centres unmarked) [MRGG045321a] | > 45 µM
CCN1CCN(c2ccc(C(=O)N(C)c3cccc(C)c3)cc2F)CC1 [MRGG045277a] | > 45 µM
Cc1nn(C)cc1C1=NOC(C(=O)N[C@H](C)c2ccc(Br)cc2)C1 (some centres unmarked) [MRGG045282a] | > 45 µM
O=C(NC1CCc2ccccc21)c1ccc(Cl)cc1 (centres unmarked) [MRGG044788a] | > 45 µM
O=C(NC1(c2ccc(F)cc2)COC1)c1ccc2cnccc2c1 [MRGG045267a] | > 45 µM
